Laboratory results reported in ChEMBL document CHEMBL1125863, “New aromatase inhibitors. Synthesis and biological activity of pyridyl-substituted tetralone derivatives” (J Med Chem, 1991).
“And” between values parts separate entries of the source, which are not always exact repeats. Identical values can stand only once.

What was measured:
Rattus norvegicus [1] = species: Rattus norvegicus; format: functional; conditions: dose 20 mg/kg
Rattus norvegicus [2] = species: Rattus norvegicus; format: functional; conditions: dose 20 mg/kg; remark: listed apart in the source
Rattus norvegicus [3] = species: Rattus norvegicus; format: functional; conditions: dose 20 mg/kg; remark: listed apart in the source
Rattus norvegicus [4] = species: Rattus norvegicus; format: functional; conditions: dose 20 mg/kg; remark: listed apart in the source
Rattus norvegicus [5] = species: Rattus norvegicus; format: functional; conditions: dose 20 mg/kg; remark: listed apart in the source
Rattus norvegicus [6] = species: Rattus norvegicus; format: functional; conditions: dose 20 mg/kg; remark: listed apart in the source
Rattus norvegicus [7] = species: Rattus norvegicus; format: functional; conditions: dose 20 mg/kg; remark: listed apart in the source
Rattus norvegicus [8] = species: Rattus norvegicus; format: functional; conditions: dose 11.4 mg/kg
Rattus norvegicus [9] = species: Rattus norvegicus; format: functional; conditions: dose 11.4 mg/kg; remark: listed apart in the source
Rattus norvegicus [10] = species: Rattus norvegicus; format: functional; conditions: dose 11.4 mg/kg; remark: listed apart in the source
Rattus norvegicus [11] = species: Rattus norvegicus; format: functional
Rattus norvegicus [12] = species: Rattus norvegicus; format: functional; conditions: dose 11.4 mg/kg; remark: listed apart in the source
Rattus norvegicus [13] = species: Rattus norvegicus; format: functional; conditions: dose 11.4 mg/kg; remark: listed apart in the source
Rattus norvegicus [14] = species: Rattus norvegicus; format: functional; conditions: dose 11.4 mg/kg; remark: listed apart in the source
Rattus norvegicus [15] = species: Rattus norvegicus; format: functional; conditions: dose 10.2 mg/kg
Rattus norvegicus [16] = species: Rattus norvegicus; format: functional; conditions: dose 10.2 mg/kg; remark: listed apart in the source
Rattus norvegicus [17] = species: Rattus norvegicus; format: functional; conditions: dose 10.2 mg/kg; remark: listed apart in the source
Rattus norvegicus [18] = species: Rattus norvegicus; format: functional; conditions: dose 10.2 mg/kg; remark: listed apart in the source
Rattus norvegicus [19] = species: Rattus norvegicus; format: functional; conditions: dose 10.2 mg/kg; remark: listed apart in the source
Rattus norvegicus [20] = species: Rattus norvegicus; format: functional; conditions: dose 10.2 mg/kg; remark: listed apart in the source
Rattus norvegicus [21] = species: Rattus norvegicus; format: functional; conditions: dose 10.2 mg/kg; remark: listed apart in the source
Rattus norvegicus [22] = species: Rattus norvegicus; format: functional; conditions: dose 11.5 mg/kg
Rattus norvegicus [23] = species: Rattus norvegicus; format: functional; conditions: dose 11.5 mg/kg; remark: listed apart in the source
Rattus norvegicus [24] = species: Rattus norvegicus; format: functional; conditions: dose 11.5 mg/kg; remark: listed apart in the source
Rattus norvegicus [25] = species: Rattus norvegicus; format: functional; conditions: dose 11.5 mg/kg; remark: listed apart in the source
Rattus norvegicus [26] = species: Rattus norvegicus; format: functional; conditions: dose 11.5 mg/kg; remark: listed apart in the source
Rattus norvegicus [27] = species: Rattus norvegicus; format: functional; conditions: dose 11.5 mg/kg; remark: listed apart in the source
Rattus norvegicus [28] = species: Rattus norvegicus; format: functional; conditions: dose 11.5 mg/kg; remark: listed apart in the source
Rattus norvegicus [29] = species: Rattus norvegicus; conditions: Ovarian vein
Rattus norvegicus [30] = species: Rattus norvegicus; conditions: Heart right ventricle
Rattus norvegicus [31] = species: Rattus norvegicus; format: functional; conditions: dose 10.9 mg/kg
Rattus norvegicus [32] = species: Rattus norvegicus; format: functional; conditions: dose 10.9 mg/kg; remark: listed apart in the source
Rattus norvegicus [33] = species: Rattus norvegicus; format: functional; conditions: dose 10.9 mg/kg; remark: listed apart in the source
Rattus norvegicus [34] = species: Rattus norvegicus; format: functional; conditions: dose 10.9 mg/kg; remark: listed apart in the source
Rattus norvegicus [35] = species: Rattus norvegicus; format: functional; conditions: dose 10.9 mg/kg; remark: listed apart in the source
Rattus norvegicus [36] = species: Rattus norvegicus; format: functional; conditions: dose 10.9 mg/kg; remark: listed apart in the source
Rattus norvegicus [37] = species: Rattus norvegicus; format: functional; conditions: dose 10.9 mg/kg; remark: listed apart in the source
Rattus norvegicus [38] = species: Rattus norvegicus; format: functional; conditions: dose 10.1 mg/kg
Rattus norvegicus [39] = species: Rattus norvegicus; format: functional; conditions: dose 10.1 mg/kg; remark: listed apart in the source
Rattus norvegicus [40] = species: Rattus norvegicus; format: functional; conditions: dose 10.1 mg/kg; remark: listed apart in the source
Rattus norvegicus [41] = species: Rattus norvegicus; format: functional; conditions: dose 10.1 mg/kg; remark: listed apart in the source
Rattus norvegicus [42] = species: Rattus norvegicus; format: functional; conditions: dose 10.1 mg/kg; remark: listed apart in the source
Rattus norvegicus [43] = species: Rattus norvegicus; format: functional; conditions: dose 10.1 mg/kg; remark: listed apart in the source
Rattus norvegicus [44] = species: Rattus norvegicus; format: functional; conditions: dose 10 mg/kg
Rattus norvegicus [45] = species: Rattus norvegicus; conditions: Heart right ventricle; remark: listed apart in the source
Aromatase = target: T1, Aromatase (Rattus norvegicus, UniProt P22443)
T1 sequence (P22443 whole entry): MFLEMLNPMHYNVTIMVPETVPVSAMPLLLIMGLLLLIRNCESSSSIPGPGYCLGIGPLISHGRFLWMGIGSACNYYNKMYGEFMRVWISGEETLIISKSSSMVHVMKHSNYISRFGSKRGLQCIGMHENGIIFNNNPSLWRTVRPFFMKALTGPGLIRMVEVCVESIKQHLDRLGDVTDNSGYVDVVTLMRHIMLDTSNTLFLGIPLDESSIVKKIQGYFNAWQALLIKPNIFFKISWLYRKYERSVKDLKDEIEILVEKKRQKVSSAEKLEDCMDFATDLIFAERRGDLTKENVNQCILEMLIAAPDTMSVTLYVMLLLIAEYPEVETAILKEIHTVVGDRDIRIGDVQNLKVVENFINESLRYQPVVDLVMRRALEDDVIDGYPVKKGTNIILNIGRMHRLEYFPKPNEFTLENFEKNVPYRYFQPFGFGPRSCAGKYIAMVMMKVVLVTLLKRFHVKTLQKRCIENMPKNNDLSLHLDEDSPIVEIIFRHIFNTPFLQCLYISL

Rattus norvegicus [46] = species: Rattus norvegicus; conditions: Heart right ventricle; remark: listed apart in the source
Rattus norvegicus [47] = species: Rattus norvegicus; conditions: Heart right ventricle; remark: listed apart in the source
Rattus norvegicus [48] = species: Rattus norvegicus; conditions: Heart right ventricle; remark: listed apart in the source
Rattus norvegicus [49] = species: Rattus norvegicus; conditions: Heart right ventricle; remark: listed apart in the source
Rattus norvegicus [50] = species: Rattus norvegicus; conditions: Heart right ventricle; remark: listed apart in the source
Rattus norvegicus [51] = species: Rattus norvegicus; conditions: Heart right ventricle; remark: listed apart in the source
Rattus norvegicus [52] = species: Rattus norvegicus; conditions: Heart right ventricle; remark: listed apart in the source
Rattus norvegicus [53] = species: Rattus norvegicus; conditions: Heart right ventricle; remark: listed apart in the source
Rattus norvegicus [54] = species: Rattus norvegicus; conditions: Heart right ventricle; remark: listed apart in the source
Rattus norvegicus [55] = species: Rattus norvegicus; conditions: Heart right ventricle; remark: listed apart in the source
Rattus norvegicus [56] = species: Rattus norvegicus; format: functional; conditions: dose 10 mg/kg; remark: listed apart in the source
Rattus norvegicus [57] = species: Rattus norvegicus; format: functional; conditions: dose 10 mg/kg; remark: listed apart in the source
Rattus norvegicus [58] = species: Rattus norvegicus; format: functional; conditions: dose 10 mg/kg; remark: listed apart in the source
Rattus norvegicus [59] = species: Rattus norvegicus; format: functional; conditions: dose 10 mg/kg; remark: listed apart in the source
Rattus norvegicus [60] = species: Rattus norvegicus; format: functional; conditions: dose 10 mg/kg; remark: listed apart in the source
Rattus norvegicus [61] = species: Rattus norvegicus; format: functional; conditions: dose 10 mg/kg; remark: listed apart in the source
Rattus norvegicus [62] = species: Rattus norvegicus; conditions: Heart right ventricle; remark: listed apart in the source

SMILES: CCC(=O)O[C@H]1CC[C@H]2[C@@H]3CCC4=CC(=O)CC[C@]4(C)[C@H]3CC[C@]12C [TESTOSTERONE PROPIONATE]
- Tumors with CR (Rattus norvegicus [1]): 19%
- Tumors with CR (Rattus norvegicus [2]): 25%
- Tumors with CR (Rattus norvegicus [3]): 36%
- No. of tumors (Rattus norvegicus [4]): 12
- Tumors with CR (Rattus norvegicus [5]): 19%
- No. of tumors (Rattus norvegicus [6]): 36
- Change of tumor area (Rattus norvegicus [7]): 141%

SMILES: CCC(=O)O[C@H]1CC[C@H]2[C@@H]3CCC4=CC(=O)CC[C@]4(C)[C@H]3CC[C@]12C.COc1cccc2c1CC/C(=C\c1ccncc1)C2=O
- Tumors with CR (Rattus norvegicus [8]): 29%
- Tumors with CR (Rattus norvegicus [9]): 11%
- Tumors with CR (Rattus norvegicus [10]): 50%
- Tumors with CR (Rattus norvegicus [11]): 11%
- No. of tumors (Rattus norvegicus [12]): 28
- No. of tumors (Rattus norvegicus [13]): 9
- Change of tumor area (Rattus norvegicus [14]): 115%

SMILES: CCC(=O)O[C@H]1CC[C@H]2[C@@H]3CCC4=CC(=O)CC[C@]4(C)[C@H]3CC[C@]12C.O=C1c2ccccc2CCC1Cc1ccncc1
- Tumors with CR (Rattus norvegicus [15]): 13%
- Tumors with CR (Rattus norvegicus [16]): 32%
- No. of tumors (Rattus norvegicus [17]): 8
- Tumors with CR (Rattus norvegicus [18]): 45%
- Tumors with CR (Rattus norvegicus [19]): 10%
- No. of tumors (Rattus norvegicus [20]): 31
- Change of tumor area (Rattus norvegicus [21]): 41%

SMILES: CCC(=O)O[C@H]1CC[C@H]2[C@@H]3CCC4=CC(=O)CC[C@]4(C)[C@H]3CC[C@]12C.COc1cccc2c1CCC(Cc1ccncc1)C2=O
- Tumors with CR (Rattus norvegicus [22]): 24%
- Tumors with CR (Rattus norvegicus [23]): 29%
- Tumors with CR (Rattus norvegicus [24]): 35%
- No. of tumors (Rattus norvegicus [25]): 11
- Tumors with CR (Rattus norvegicus [26]): 12%
- No. of tumors (Rattus norvegicus [27]): 34
- Change of tumor area (Rattus norvegicus [28]): 50%

SMILES: O=C1/C(=C/c2ccncc2)CCc2c(O)cccc21
- Plasma-E2 concentration (Rattus norvegicus [29]): 4040 pg/mL
- Plasma-E2 concentration (Rattus norvegicus [30]): 524 pg/mL

SMILES: CCC(=O)O[C@H]1CC[C@H]2[C@@H]3CCC4=CC(=O)CC[C@]4(C)[C@H]3CC[C@]12C.O=C1c2cccc(O)c2CCC1Cc1ccncc1
- Tumors with CR (Rattus norvegicus [31]): 27%
- Tumors with CR (Rattus norvegicus [32]): 6%
- Tumors with CR (Rattus norvegicus [33]): 45%
- No. of tumors (Rattus norvegicus [34]): 3
- Tumors with CR (Rattus norvegicus [35]): 21%
- No. of tumors (Rattus norvegicus [36]): 33
- Change of tumor area (Rattus norvegicus [37]): 61%

SMILES: CCC(=O)O[C@H]1CC[C@H]2[C@@H]3CCC4=CC(=O)CC[C@]4(C)[C@H]3CC[C@]12C.O=C1/C(=C/c2ccncc2)CCc2ccccc21
- Tumors with CR (Rattus norvegicus [38]): 20%
- Tumors with CR (Rattus norvegicus [39]): 20%
- Tumors with CR (Rattus norvegicus [40]): 40%
- Tumors with CR (Rattus norvegicus [41]): 20%
- No. of tumors (Rattus norvegicus [42]): 30
- No. of tumors (Rattus norvegicus [43]): 6
- Change of tumor area (Rattus norvegicus [44]): 2%

SMILES: O=C1c2ccccc2CCC1Cc1ccncc1 (configuration not stated)
- Plasma-E2 concentration (Rattus norvegicus [29]): 3700 pg/mL
- Plasma-E2 concentration (Rattus norvegicus [45]): 717 pg/mL

SMILES: COc1cccc2c1CCC(Cc1ccncc1)C2=O (configuration not stated)
- IC50 (Aromatase): 8 µM
- Plasma-E2 concentration (Rattus norvegicus [46]): 882 pg/mL
- Plasma-E2 concentration (Rattus norvegicus [47]): 851 pg/mL
- Plasma-E2 concentration (Rattus norvegicus [29]): 3950 pg/mL
- Plasma-E2 concentration (Rattus norvegicus [48]): 990 pg/mL
- Plasma-E2 concentration (Rattus norvegicus [49]): 639 pg/mL
- Plasma-E2 concentration (Rattus norvegicus [50]): 894 pg/mL
- Plasma-E2 concentration (Rattus norvegicus [51]): 1460 pg/mL and 902 pg/mL
- Plasma-E2 concentration (Rattus norvegicus [52]): 576 pg/mL
- Plasma-E2 concentration (Rattus norvegicus [53]): 458 pg/mL
- Plasma-E2 concentration (Rattus norvegicus [54]): 1040 pg/mL
- Plasma-E2 concentration (Rattus norvegicus [30]): 542 pg/mL
- Plasma-E2 concentration (Rattus norvegicus [55]): 1250 pg/mL

SMILES: CCC(=O)O[C@H]1CC[C@H]2[C@@H]3CCC4=CC(=O)CC[C@]4(C)[C@H]3CC[C@]12C.CCC1(c2ccc(N)cc2)CCC(=O)NC1=O
- Tumors with CR (Rattus norvegicus [56]): 6%
- Tumors with CR (Rattus norvegicus [57]): 17%
- Tumors with CR (Rattus norvegicus [58]): 23%
- Tumors with CR (Rattus norvegicus [59]): 54%
- No. of tumors (Rattus norvegicus [60]): 35
- No. of tumors (Rattus norvegicus [61]): 7
- Change of tumor area (Rattus norvegicus [44]): 4%

SMILES: O=C1c2cccc(O)c2CCC1Cc1ccncc1 (stereo in doubt; 12)
- IC50 (Aromatase): 2 µM
- Plasma-E2 concentration (Rattus norvegicus [29]): 3700 pg/mL
- Plasma-E2 concentration (Rattus norvegicus [30]): 472 pg/mL

SMILES: CCC1(c2ccc(N)cc2)CCC(=O)NC1=O (configuration not stated)
- Plasma-E2 concentration (Rattus norvegicus [51]): 843 pg/mL and 500 pg/mL
- Plasma-E2 concentration (Rattus norvegicus [52]): 272 pg/mL
- Plasma-E2 concentration (Rattus norvegicus [62]): 164 pg/mL
